Source: patent publication US20230146455A1, “TREATMENT OF INFLAMMATORY DISEASES WITH PEPTIDES AND PHARMACEUTICAL COMPOSITIONS” (Yuyu Pharma, Inc., priority 2020, published 2023)
“And” between values parts separate entries of the source, which are not always exact repeats. Equal entries are not always repeated. Where a SMILES comes first, the peptide text is derived from it. [ ]: non-standard residue; d: D form. Hyp = O=C(O)[C@@H]1C[C@@H](O)CN1

Columns and labels:
IFN-gamma = assay: Example 9 Luminex, LPS hPBMCs: IFN-gamma; assay type: cell-based, human
Description: (§1) Treatment Human PBMCs were pretreated with YY-101, YDE-011 and YDE-043 or reference compound; Xiidra® at various concentration (ranging from 1 nM to 100 uM) for 2 h before stimulation. An equal volume of 0.5% DMSO was used as a vehicle control. Then, the cells were treated with LPS at 5 ug/ml. The supernatants from treated cells were harvested at 24 h and placed in a 96 well for Luminex cytokine & chemokine profiling using a Luminex 200 multiplex assay (Luminex; R&D system, USA).
(§2) The main study arm with triplicate wells per group in a 24-well plate: • 1. Blank • 2. PBMC: 0.5% DMSO • 3. PBMC+LPS (5 ug/ml) • 4. PBMC+YY-101 100 uM • 5. PBMC+YY-101 10 uM • 6. PBMC+YY-101 1 uM • 7. PBMC+YY-101 0.1 uM • 8. PBMC+YY-101 0.01 uM • 9. PBMC+LPS (5 ug/ml)+Xiidra®100 uM • 10. PBMC+LPS (5 ug/ml)+Xiidra® 10 uM • 11. PBMC+LPS (5 ug/ml)+Xiidra® 1 uM • 12. PBMC+LPS (5 ug/ml)+Xiidra®0.1 uM • 13. PBMC+LPS (5 ug/ml)+Xiidra®0.01 uM • 14. PBMC+LPS (5 ug/ml)+Xiidra®0.001 uM • 15. PBMC+LPS (5 ug/ml)+YY-101 100 uM • 16. PBMC+LPS (5 ug/ml)+YY-101 10 uM • 17. PBMC+LPS (5 ug/ml)+YY-101 1 uM • 18. PBMC+LPS (5 ug/ml)+YY-101 0.1 uM • 19. PBMC+LPS (5 ug/ml)+YY-101 0.01 uM • 20. PBMC+LPS (5 ug/ml)+YY-101 0.001 uM • 21. PBMC+LPS (5 ug/ml)+YDE-011 100 uM • 22. PBMC+LPS (5 ug/ml)+YDE-011 10 uM • 23. PBMC+LPS (5 ug/ml)+YDE-011 1 uM • 24. PBMC+LPS (5 ug/ml)+YDE-011 0.1 uM • 25. PBMC+LPS (5 ug/ml)+YDE-011 0.01 uM • 26. PBMC+LPS (5 ug/ml)+YDE-011 0.001 uM • 27. PBMC+LPS (5 ug/ml)+YDE-043 100 uM • 28. PBMC+LPS (5 ug/ml)+YDE-043 10 uM • 29. PBMC+LPS (5 ug/ml)+YDE-043 1 uM • 30. PBMC+LPS (5 ug/ml)+YDE-043 0.1 uM • 31. PBMC+LPS (5 ug/ml)+YDE-043 0.01 uM • 32. PBMC+LPS (5 ug/ml)+YDE-043 0.001 uM
(§3) Multiplex assay was used to measure 30 cytokines and chemokines. The 1:2, 1:10 and 1:200 diluted cell supernatant and serial dilution of the standard were dispensed into a 96 well plate at 50 ul/well. Then, the pre-mixed cocktail of antibody-coated magnetic beads was dispensed at 50 ul/well and incubated at room temperature for 2 h in a horizontal orbital microplate shaker at 800±500 rpm. The beads were washed using a magnetic device to prevent loss. The biotin-antibody was dispensed in 50 ul of each well and incubated at room temperature for 1 h in a shaker at 800±500 rpm. After washing, streptavidin-PE was added at 50 ul/well and incubated at room temperature for 30 min in a shaker under the same conditions. Finally, after washing, wash buffer (100 ul/well) was added to the plate and incubated in a shaker for 2 min. The Luminex™ 200 setting were set according to the manufacturer's protocol. The data was calculated with a standard five-parameter logistic nonlinear regression analysis of the data (xPonent software 4.2, USA). The levels of cytokine/chemokine are normalized to the live cell counts (1×10^5 cells/mL) and presented as concentrations per mL (pg/mL or ng/mL).

TNF-alpha = assay: Example 9 Luminex, LPS hPBMCs: TNF-alpha; assay type: cell-based, human
Description: as §1, §2, §3

[1] = PBMC + LPS(5 ug/ml) + test article 0.001 uM, Mean
[2] = PBMC + LPS(5 ug/ml) + test article 0.001 uM, single replicates
[3] = PBMC + LPS(5 ug/ml) + test article 0.01 uM, Mean
[4] = PBMC + LPS(5 ug/ml) + test article 0.01 uM, single replicates
[5] = PBMC + LPS(5 ug/ml) + test article 0.1 uM, Mean
[6] = PBMC + LPS(5 ug/ml) + test article 0.1 uM, single replicates
[7] = PBMC + LPS(5 ug/ml) + test article 1 uM, Mean
[8] = PBMC + LPS(5 ug/ml) + test article 1 uM, single replicates
[9] = PBMC + LPS(5 ug/ml) + test article 10 uM, Mean
[10] = PBMC + LPS(5 ug/ml) + test article 10 uM, single replicates
[11] = PBMC + LPS(5 ug/ml) + test article 100 uM, Mean
[12] = PBMC + LPS(5 ug/ml) + test article 100 uM, single replicates
[13] = PBMC + LPS(5 ug/ml) + test article 0.001 uM, individual replicates (1st, 2nd, 3rd)
[14] = PBMC + LPS(5 ug/ml) + test article 0.01 uM, individual replicates (1st, 2nd, 3rd)
[15] = PBMC + LPS(5 ug/ml) + test article 0.1 uM, individual replicates (1st, 2nd, 3rd)
[16] = PBMC + LPS(5 ug/ml) + test article 1 uM, individual replicates (1st, 2nd, 3rd)
[17] = PBMC + LPS(5 ug/ml) + test article 10 uM, individual replicates (1st, 2nd, 3rd)
[18] = PBMC + LPS(5 ug/ml) + test article 100 uM, individual replicates (1st, 2nd, 3rd)

Compound: CC(C)C[C@H](NC(=O)[C@H](CCC(N)=O)NC(=O)CNC(=O)[C@@H]1C[C@@H](O)CN1)C(=O)NCC(=O)O [YDE-043] (H-[Hyp]GQLG-OH; N-terminus and C-terminus assumed)
- Concentration (IFN-gamma) (IFN-gamma; [1]): 861.2 pg/mL
- conc/live cell (IFN-gamma) (IFN-gamma; [1]): 174.1 pg/10^5
- Concentration (IFN-gamma) (IFN-gamma; [2]): 863.3 pg/mL and 945.2 pg/mL and 774.9 pg/mL
- conc/live cell (IFN-gamma) (IFN-gamma; [2]): 196.2 pg/10^5 and 157.5 pg/10^5 and 168.5 pg/10^5
- Concentration (IFN-gamma) (IFN-gamma; [3]): 841.6 pg/mL
- conc/live cell (IFN-gamma) (IFN-gamma; [3]): 161.9 pg/10^5
- Concentration (IFN-gamma) (IFN-gamma; [4]): 857.6 pg/mL and 792.3 pg/mL and 874.8 pg/mL
- conc/live cell (IFN-gamma) (IFN-gamma; [4]): 190.6 pg/10^5 and 120.0 pg/10^5 and 175.0 pg/10^5
- Concentration (IFN-gamma) (IFN-gamma; [5]): 797.8 pg/mL
- conc/live cell (IFN-gamma) (IFN-gamma; [5]): 148.8 pg/10^5
- Concentration (IFN-gamma) (IFN-gamma; [6]): 892.0 pg/mL and 628.5 pg/mL and 872.9 pg/mL
- conc/live cell (IFN-gamma) (IFN-gamma; [6]): 178.4 pg/10^5 and 112.2 pg/10^5 and 155.9 pg/10^5
- Concentration (IFN-gamma) (IFN-gamma; [7]): 852.5 pg/mL
- conc/live cell (IFN-gamma) (IFN-gamma; [7]): 162.3 pg/10^5
- Concentration (IFN-gamma) (IFN-gamma; [8]): 734.2 pg/mL and 834.6 pg/mL and 988.7 pg/mL
- conc/live cell (IFN-gamma) (IFN-gamma; [8]): 126.6 pg/10^5 and 173.9 pg/10^5 and 186.5 pg/10^5
- Concentration (IFN-gamma) (IFN-gamma; [9]): 840.3 pg/mL
- conc/live cell (IFN-gamma) (IFN-gamma; [9]): 155.7 pg/10^5
- Concentration (IFN-gamma) (IFN-gamma; [10]): 828.9 pg/mL and 826.9 pg/mL and 865.3 pg/mL
- conc/live cell (IFN-gamma) (IFN-gamma; [10]): 159.4 pg/10^5 and 153.1 pg/10^5 and 154.5 pg/10^5
- Concentration (IFN-gamma) (IFN-gamma; [11]): 462.3 pg/mL
- conc/live cell (IFN-gamma) (IFN-gamma; [11]): 73.4 pg/10^5
- Concentration (IFN-gamma) (IFN-gamma; [12]): 480.6 pg/mL and 444.0 pg/mL
- conc/live cell (IFN-gamma) (IFN-gamma; [12]): 77.5 pg/10^5 and 69.4 pg/10^5
- TNF-alpha Concentration (TNF-alpha; [1]): 1325.0 pg/mL
- TNF-alpha conc/live cell (TNF-alpha; [1]): 268.4 pg/10^5
- TNF-alpha Concentration (TNF-alpha; [13]): 1248.3 pg/mL and 1405.1 pg/mL and 1321.4 pg/mL
- TNF-alpha conc/live cell (TNF-alpha; [13]): 283.7 pg/10^5 and 234.2 pg/10^5 and 287.3 pg/10^5
- TNF-alpha Concentration (TNF-alpha; [3]): 1327.4 pg/mL
- TNF-alpha conc/live cell (TNF-alpha; [3]): 253.6 pg/10^5
- TNF-alpha Concentration (TNF-alpha; [14]): 1282.6 pg/mL and 1322.9 pg/mL and 1376.7 pg/mL
- TNF-alpha conc/live cell (TNF-alpha; [14]): 285.0 pg/10^5 and 200.4 pg/10^5 and 275.3 pg/10^5
- TNF-alpha Concentration (TNF-alpha; [5]): 1319.0 pg/mL
- TNF-alpha conc/live cell (TNF-alpha; [5]): 244.5 pg/10^5
- TNF-alpha Concentration (TNF-alpha; [15]): 1254.3 pg/mL and 1333.4 pg/mL and 1369.2 pg/mL
- TNF-alpha conc/live cell (TNF-alpha; [15]): 250.9 pg/10^5 and 238.1 pg/10^5 and 244.5 pg/10^5
- TNF-alpha Concentration (TNF-alpha; [7]): 1260.8 pg/mL
- TNF-alpha conc/live cell (TNF-alpha; [7]): 238.1 pg/10^5
- TNF-alpha Concentration (TNF-alpha; [16]): 1330.4 pg/mL and 1136.7 pg/mL and 1315.4 pg/mL
- TNF-alpha conc/live cell (TNF-alpha; [16]): 229.4 pg/10^5 and 236.8 pg/10^5 and 248.2 pg/10^5
- TNF-alpha Concentration (TNF-alpha; [9]): 1247.9 pg/mL
- TNF-alpha conc/live cell (TNF-alpha; [9]): 231.0 pg/10^5
- TNF-alpha Concentration (TNF-alpha; [17]): 1175.4 pg/mL and 1249.8 pg/mL and 1318.4 pg/mL
- TNF-alpha conc/live cell (TNF-alpha; [17]): 226.0 pg/10^5 and 231.4 pg/10^5 and 235.4 pg/10^5
- TNF-alpha Concentration (TNF-alpha; [11]): 901.5 pg/mL
- TNF-alpha conc/live cell (TNF-alpha; [11]): 143.3 pg/10^5
- TNF-alpha Concentration (TNF-alpha; [18]): 956.0 pg/mL and 847.0 pg/mL
- TNF-alpha conc/live cell (TNF-alpha; [18]): 154.2 pg/10^5 and 132.4 pg/10^5
